Data: PubChem BioAssay AID248 (DTP/NCI, 2004)
Toxic doses and inconclusive results are not listed.

Tested on: L1210 leukemia ip in BDF1 mice, survival T/C
Experiment: NCI In Vivo Anticancer Drug Screen. Data for tumor model L1210 Leukemia (intraperitoneal) in B6D2F1 (BDF1) mice
Conditions: endpoint: mean survival time, vehicle: saline with Tween-80, higher = longer survival
In short: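 In this screen, tumor-bearing mice given compound are compared to those given vehicle, and their survival values are reported as a treated-to-control quotient.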

SMILES	T/C (dose: 100.0 mg/kg/injection, schedule: Q04DX003 (ip))	T/C (dose: 200.0 mg/kg/injection, schedule: Q04DX003 (ip))	T/C (dose: 400.0 mg/kg/injection, schedule: Q04DX003 (ip))	T/C (dose: 12.5 mg/kg/injection, schedule: Q01DX009 (ip))	T/C (dose: 25.0 mg/kg/injection, schedule: Q01DX009 (ip))
CN(C)c1ccc(/C=N/Nc2ncnc3nc[nH]c23)cc1	98 % of control	96 % of control	91 % of control		
CCN1CC2c3cc(OC)c(OC)cc3CC(c3ccccc3)C2C1 (stereo not given)				98 % of control	95 % of control
